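Five compound concentrations were applied to cells in 96-well plates for 48 hours; endpoints were derived by simple linear interpolation of the resulting dose-response curve. Abbreviation: GI50, concentration required for 50% inhibition of growth.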 Activity calls are given as the source filed them. Cut-off read from the data, not from the text of the source: active = GI50 up to about 1.1 µM and inactive = higher.
Key:
Test in all cases: DTP human tumour cell line panel, 48 h
SF-268 = test system: SF-268
MOLT-4 = test system: MOLT-4
SK-MEL-28 = test system: SK-MEL-28
RXF 393 = test system: RXF 393
NCI/ADR-RES = test system: NCI/ADR-RES
HL-60 = test system: HL-60
K562 = test system: K562
MDA-N = test system: MDA-N
OVCAR-8 = test system: OVCAR-8
HOP-92 = test system: HOP-92
MDA-MB-435 = test system: MDA-MB-435
OVCAR-4 = test system: OVCAR-4
SK-MEL-5 = test system: SK-MEL-5
U-251 = test system: U-251
NCI-H23 = test system: NCI-H23
SF-539 = test system: SF-539
SK-MEL-2 = test system: SK-MEL-2
Hs-578T = test system: Hs-578T
COLO 205 = test system: COLO 205
MDA-MB-231 = test system: MDA-MB-231
M14 = test system: M14
SR = test system: SR
HT-29 = test system: HT-29
HCC 2998 = test system: HCC 2998
UACC-257 = test system: UACC-257
DU-145 = test system: DU-145
T47D = test system: T47D
HOP-62 = test system: HOP-62
UACC-62 = test system: UACC-62
Malme-3M = test system: Malme-3M
RPMI-8226 = test system: RPMI-8226
SF-295 = test system: SF-295
ACHN = test system: ACHN
SNB-19 = test system: SNB-19
LOX IMVI = test system: LOX IMVI
SN12C = test system: SN12C
HCT-15 = test system: HCT-15
OVCAR-5 = test system: OVCAR-5
BT-549 = test system: BT-549
PC-3 = test system: PC-3
SW-620 = test system: SW-620
A498 = test system: A498
CCRF-CEM = test system: CCRF-CEM
UO-31 = test system: UO-31
TK-10 = test system: TK-10
MCF7 = test system: MCF7
NCI-H522 = test system: NCI-H522
HCT-116 = test system: HCT-116
EKVX = test system: EKVX
SNB-75 = test system: SNB-75
KM12 = test system: KM12
786-0 = test system: 786-0
OVCAR-3 = test system: OVCAR-3
SK-OV-3 = test system: SK-OV-3
IGROV-1 = test system: IGROV-1
CAKI-1 = test system: CAKI-1
NCI-H460 = test system: NCI-H460
NCI-H226 = test system: NCI-H226
A549 = test system: A549

COC(=O)C(Cc1ccccc1)C(=O)NC(CNC(=O)OCc1ccccc1)C(=O)OCc1ccccc1 (stereo unspecified)
GI50 (SF-268): 44.8 µM (inactive)
GI50 (MOLT-4): 11.8 µM (inactive)
GI50 (SK-MEL-28): 19.3 µM (inactive)
GI50 (RXF 393): 21.8 µM (inactive)
GI50 (NCI/ADR-RES): 27 µM (inactive)
GI50 (HL-60): 30.9 µM (inactive)
GI50 (K562): 15.6 µM (inactive)
GI50 (MDA-N): 21.4 µM (inactive)
GI50 (OVCAR-8): 63.1 µM (inactive)
GI50 (HOP-92): 32.1 µM (inactive)
GI50 (MDA-MB-435): 21.8 µM (inactive)
GI50 (OVCAR-4): 38.3 µM (inactive)
GI50 (SK-MEL-5): 18.8 µM (inactive)
GI50 (U-251): 49.1 µM (inactive)
GI50 (NCI-H23): 43.6 µM (inactive)
GI50 (SF-539): 40.6 µM (inactive)
GI50 (SK-MEL-2): 24.1 µM (inactive)
GI50 (Hs-578T): > 63.5 µM (inactive)
GI50 (COLO 205): 19.8 µM (inactive)
GI50 (MDA-MB-231): 20.8 µM (inactive)
GI50 (M14): 15.3 µM (inactive)
GI50 (SR): 24 µM (inactive)
GI50 (HT-29): 29.3 µM (inactive)
GI50 (HCC 2998): 30.8 µM (inactive)
GI50 (UACC-257): 17.6 µM (inactive)
GI50 (DU-145): 66.5 µM (inactive)
GI50 (T47D): 36.1 µM (inactive)
GI50 (HOP-62): > 100 µM (inactive)
GI50 (UACC-62): 23.6 µM (inactive)
GI50 (Malme-3M): 19.8 µM (inactive)
GI50 (RPMI-8226): 21.4 µM (inactive)
GI50 (SF-295): 47.1 µM (inactive)
GI50 (ACHN): 34.6 µM (inactive)
GI50 (SNB-19): 86.3 µM (inactive)
GI50 (LOX IMVI): 19.6 µM (inactive)
GI50 (SN12C): 49.8 µM (inactive)
GI50 (HCT-15): 45.7 µM
GI50 (OVCAR-5): > 100 µM (inactive)
GI50 (BT-549): 53.3 µM (inactive)
GI50 (PC-3): 38.2 µM (inactive)
GI50 (SW-620): 38.1 µM (inactive)
GI50 (A498): > 47.8 µM (inactive)
GI50 (CCRF-CEM): 14.7 µM (inactive)
GI50 (UO-31): 28.6 µM (inactive)
GI50 (TK-10): 33.7 µM (inactive)
GI50 (MCF7): > 100 µM (inactive)
GI50 (NCI-H522): 26.7 µM (inactive)
GI50 (HCT-116): 31.9 µM (inactive)
GI50 (EKVX): 76.7 µM (inactive)
GI50 (SNB-75): 23.3 µM (inactive)
GI50 (KM12): 58.9 µM (inactive)
GI50 (786-0): 25.9 µM (inactive)
GI50 (OVCAR-3): 20 µM (inactive)
GI50 (SK-OV-3): > 100 µM (inactive)
GI50 (IGROV-1): 65.6 µM (inactive)
GI50 (CAKI-1): 36.8 µM (inactive)
GI50 (NCI-H460): 42.1 µM (inactive)
GI50 (NCI-H226): 32.1 µM (inactive)

Sc1nn2c(COc3cccc(OCc4nnc5sc(S)nn45)c3)nnc2s1
GI50 (SF-268): > 100 µM (inactive)
GI50 (MOLT-4): 2.09 µM (inactive)
GI50 (SK-MEL-28): > 100 µM (inactive)
GI50 (RXF 393): > 100 µM (inactive)
GI50 (NCI/ADR-RES): > 100 µM (inactive)
GI50 (HL-60): 7.08 µM (inactive)
GI50 (K562): 7.89 µM (inactive)
GI50 (MDA-N): > 100 µM (inactive)
GI50 (OVCAR-8): > 100 µM (inactive)
GI50 (HOP-92): > 100 µM (inactive)
GI50 (MDA-MB-435): > 100 µM (inactive)
GI50 (OVCAR-4): > 100 µM (inactive)
GI50 (U-251): > 100 µM (inactive)
GI50 (NCI-H23): > 100 µM (inactive)
GI50 (SF-539): 52.1 µM (inactive)
GI50 (SK-MEL-2): > 100 µM (inactive)
GI50 (Hs-578T): > 100 µM (inactive)
GI50 (COLO 205): > 100 µM (inactive)
GI50 (MDA-MB-231): > 100 µM (inactive)
GI50 (M14): > 100 µM (inactive)
GI50 (SR): 17.4 µM (inactive)
GI50 (HT-29): 62.5 µM (inactive)
GI50 (HCC 2998): > 100 µM (inactive)
GI50 (UACC-257): > 100 µM (inactive)
GI50 (DU-145): > 100 µM (inactive)
GI50 (T47D): > 100 µM (inactive)
GI50 (HOP-62): > 100 µM (inactive)
GI50 (UACC-62): > 100 µM (inactive)
GI50 (Malme-3M): > 100 µM (inactive)
GI50 (RPMI-8226): 73.5 µM (inactive)
GI50 (SF-295): > 100 µM (inactive)
GI50 (ACHN): > 100 µM (inactive)
GI50 (SNB-19): > 100 µM (inactive)
GI50 (LOX IMVI): 34.4 µM (inactive)
GI50 (SN12C): > 100 µM (inactive)
GI50 (HCT-15): 52.8 µM
GI50 (OVCAR-5): > 100 µM (inactive)
GI50 (BT-549): > 100 µM (inactive)
GI50 (PC-3): > 100 µM (inactive)
GI50 (SW-620): 37.5 µM (inactive)
GI50 (A498): > 100 µM (inactive)
GI50 (A549): > 100 µM (inactive)
GI50 (CCRF-CEM): 28.2 µM (inactive)
GI50 (UO-31): > 100 µM (inactive)
GI50 (TK-10): > 100 µM (inactive)
GI50 (MCF7): 76.2 µM (inactive)
GI50 (NCI-H522): 64.6 µM (inactive)
GI50 (HCT-116): > 100 µM (inactive)
GI50 (EKVX): > 100 µM (inactive)
GI50 (SNB-75): > 100 µM (inactive)
GI50 (KM12): > 100 µM (inactive)
GI50 (786-0): 41.4 µM (inactive)
GI50 (OVCAR-3): > 100 µM (inactive)
GI50 (SK-OV-3): > 100 µM (inactive)
GI50 (IGROV-1): > 100 µM (inactive)
GI50 (CAKI-1): > 100 µM (inactive)
GI50 (NCI-H460): 31.8 µM (inactive)
GI50 (NCI-H226): > 100 µM (inactive)

— ChEMBL document CHEMBL1201862, “PubChem BioAssay data set” (2004)
